Paper PMC3687796 (Clinical cancer research : an official journal of the …, 2011)
Where a name gives a salt, the structure may show the parent alone.

Key:
[1] = PKs of topotecan and pazopanib in nontumor-bearing animals; assay type: in vivo, mouse; details: for difference between plasma concentrations of single agent and combination treated animals: at any time point
[2] = test system: RH30 rhabdomyosarcoma xenograft; experiment: RH30 rhabdomyosarcoma xenograft model; assay type: in vivo; details: for tumor growth: LDM TP 1.0 mg/kg, PZ 150 mg/kg, TP + PZ both
[3] = test system: SH-SY5Y xenograft; experiment: SH-SY5Y subcutaneous xenograft model; assay type: in vivo; details: for tumor microvessel density (CD31 pixel counts): compared with the control, 20 days treatment; for tumor growth delay / tumor weights at the end of the treatment: daily oral, 20 days, LDM TP 1.0 mg/kg, PZ 150 mg/kg, TP + PZ both
[4] = test system: tumor cell lines; experiment: In vitro cytotoxicity, Alamar blue cell viability, all tumor cell lines; assay type: cell-based; details: 72 hours treatment, all concentrations tested
[5] = test system: ovarian cancer model; details: cited from earlier work
[6] = test system: BE(2)-c metastatic model; experiment: BE; assay type: in vivo, mouse; details: daily oral until death or endpoint
[7] = test system: KHOS osteosarcoma xenograft; experiment: KHOS osteosarcoma xenograft model; assay type: in vivo; details: for tumor growth / tumor weight at the end of the treatment / tumor microvessel density (vWF pixel counts): 28 days; for tumor microvessel density (vWF pixel counts): compared with the control
[8] = test system: RH30; experiment: In vitro cytotoxicity, Alamar blue cell viability; assay type: cell-based; details: Rh30, 72 h, read-out: IC50, viability of RH30
[9] = test system: KHOS; experiment: In vitro cytotoxicity, Alamar blue cell viability; assay type: cell-based; details: 72 h, read-out: IC50, viability of KHOS
[10] = test system: RD; experiment: In vitro cytotoxicity, Alamar blue cell viability; assay type: cell-based; details: Homo sapiens, 72 h, read-out: IC50, viability of RD
[11] = Pulse TP weekly oral 15 mg/kg topotecan
[12] = daily oral, LDM TP 1.0 mg/kg, TP + PZ 1.0 + 150 mg/kg

Cc1ccc(Nc2nccc(N(C)c3ccc4c(C)n(C)nc4c3)n2)cc1S(N)(=O)=O [pazopanib, 5-[[4-[(2,3-Dimethyl-2H-indazol-6-yl)methyl-amino]-2-pyrimidinyl]amino]-2-methylbenzolsulfonamide]
difference between plasma concentrations of single agent and combination treated animals [1]: no significant difference | Cmax ([1]; mouse, plasma, po, 150 mg/kg): 134 µg/mL | WBC level (bone marrow toxicity) ([2]; after 31 days treatment): reduced WBC level significantly | viable CEP levels in blood ([2]; after 31 days treatment): significantly lower viable CEP levels compared with the control | enhancement of survival compared with both control and LDM TP ([2]; daily oral, 56 days): 2 fold | tumor growth ([2]; daily oral, 56 days): delayed the tumor growth | tumor microvessel density (CD31 pixel counts) [3]: significant reduction in microvessel densities | tumor growth delay [3]: tumor growth delay in the order PZ< LDM TP< TP+PZ | tumor weights at the end of the treatment [3]: significant difference in tumor weights compared with the control | effect on viability of the tumor cell lines [4]: did not affect the viabilities

CC[C@@]1(O)C(=O)OCc2c1cc1n(c2=O)Cc2cc3c(CN(C)C)c(O)ccc3nc2-1 [topotecan, (S)-10-[(dimethylamino)methyl]-4-ethyl-4,9-dihydroxy-1H-yrano [3′,4′:6,7] indolizino[1,2-b] quinoline-3,14 (4H,12H)-dione monohydrochloride]
food intake ([5]; 1.5 mg/kg daily, oral): decreased food intake | microvascular density compared with weekly maximum-tolerated dose regimen (7.5 and 15 mg/kg) ([5]; daily oral metronomic 0.5, 1.0 and 1.5 mg/kg): greater reduction in microvascular density | survival [6]: higher than PZ-treated animals | peak plasma concentration of topotecan ([1]; LDM TP group, single oral 1.0 mg/kg topotecan): 19.75 ng/mL | peak plasma concentration of topotecan ([1]; TP + PZ group, single oral 1.0 mg/kg topotecan + 150 mg/kg pazopanib): 33.05 ng/mL | difference between plasma concentrations of single agent and combination treated animals [1]: no significant difference | tumor growth ([2]; daily oral, 56 days): ineffective in controlling the tumor growth | tumor growth [7, 11]: delayed the tumor growth | tumor weight at the end of the treatment [7, 11]: significantly lower tumor weight | tumor growth [7, 12]: delayed the tumor growth | tumor weight at the end of the treatment [7, 12]: significantly lower tumor weight | viable CEP levels in blood ([7]; after 28 days treatment): significant reduction in viable CEP levels compared with Pulse TP | tumor microvessel density (vWF pixel counts) ([7]; Pulse TP weekly 15 mg/kg): caused reduction in microvessel densities | tumor microvessel density (vWF pixel counts) ([7]; daily regimens): caused reduction in microvessel densities | IC50 [8]: 7.4 ng/mL | tumor microvessel density (CD31 pixel counts) [3]: but not LDM TP caused significant reduction in microvessel densities | tumor growth delay [3]: tumor growth delay in the order PZ< LDM TP< TP+PZ | tumor weights at the end of the treatment [3]: significant tumor weight reduction compared with PZ | effect on viability of the tumor cell lines [4]: dose-dependent reduction in the viability | IC50 [9]: 4.9 ng/mL | IC50 [10]: 7.5 ng/mL
